Experimental data taken from patent US5587479A, “Basic derivatives of glutamic acid and aspartic acid as gastrin or cholecystokinin antagonists” (priority 1992, dated 1996).
Blank lines part the entries; values can stand above or below the compound they belong to.

How the values were obtained:
[1] = tested on: acid secretion induced by pentagastrin; test: Activity against gastric secretion stimulated with pentagastrin in the anaesthetized rat; format: in vivo; conditions: for ED50: iv, anaesthetized rat, pentagastrin 30 mcg/kg/h, I.V. bolus, read-out: Antagonistic activity (ID50) towards acid secretion induced by pentagastrin
Description: The investigation of the activity against gastric secretion performed by the compounds of the invention by means of an antigastrin mechanism was carried out in vivo in anaesthetized rats with the use of male animals weighing about 200 g. Gastric secretion was stimulated with pentagastrin and the method of K. S. Lai [Gut 5, (1964), 327-341] was used, slightly modified.
After tracheotomy, the oesophagus and duodenum were cannulated. Perfusion was carried out with a tepid solution (37° C.) of 0.25 mM NaOH which was passed through the stomach by means of a peristaltic pump at a constant flow rate of 1 ml/minute. After stabilization for 20 minutes, the stimulant, dissolved in a physiological solution, was perfused for 120 minutes at a dose of 30 mcg/kg/h in a volume of 0.95 ml/hour. After perfusion for 60 minutes (the basal simulation), the product under test was administered intravenously (I.V.) as a bolus and the perfusion of the stimulant was continued for a further 60 minutes. The acid secretion was recorded continuously as a function of time.
The activity of the product was evaluated as the percentage reduction in the secreted acidity after the administration of the product compared with the basal acidity measured during the first 60 minutes of collection in the presence of pentagastrin alone.

[2] = target: T1, cholecystokinin receptors of the pancreatic cells of the rat (CCK-A) (Rattus norvegicus, UniProt P30551); test: Inhibition of the binding of [125-I]-[Bolton-Hunter]-CCK-8 to rat pancreatic cells (anti-CCK-A)
T1 construct: The pancreatic cells of the rat were prepared as described by Makovec et al; from tissue; host or cells: rat pancreatic cells
T1 sequence (P30551 1-444): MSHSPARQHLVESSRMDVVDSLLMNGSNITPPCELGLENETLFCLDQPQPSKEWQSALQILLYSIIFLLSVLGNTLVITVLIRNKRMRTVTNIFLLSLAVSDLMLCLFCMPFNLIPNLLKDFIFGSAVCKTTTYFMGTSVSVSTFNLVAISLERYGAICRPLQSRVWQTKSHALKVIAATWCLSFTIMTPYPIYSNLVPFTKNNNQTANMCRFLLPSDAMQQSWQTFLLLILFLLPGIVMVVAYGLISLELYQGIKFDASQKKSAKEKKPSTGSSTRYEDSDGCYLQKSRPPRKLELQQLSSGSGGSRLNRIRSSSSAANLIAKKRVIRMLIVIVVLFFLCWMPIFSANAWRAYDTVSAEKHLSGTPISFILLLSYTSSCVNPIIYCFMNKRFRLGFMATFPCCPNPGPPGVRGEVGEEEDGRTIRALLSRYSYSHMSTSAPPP
Description: The pancreatic cells of the rat were prepared as described by Makovec et al. (reference cited) so as to produce about 5×10^6 cells/mi. The cells were then incubated together with the radioactive tracer and the compounds under test for 30 minutes at 37° C.
After the supernatant liquid had been discarded, the radioactivity associated with the pellet was determined with a gamma counter (80% efficiency).

[3] = target: T2, central CCK-B receptors (guinea pig cortical membrane) (Cavia porcellus, UniProt H0VZC5); test: Inhibition of binding of (3-H)[N-methyl-N-leucine]CCK-8 to guinea pig cortical membranes (anti-CCK-B); conditions: IC50, inhibition of binding of (3-H)[N-methyl-N-leucine]CCK-8 to the guinea pig cortical membrane, 150 minutes at 25° C.
T2 construct: Cerebral cortices of white male guinea pigs were therefore used; from tissue; host or cells: guinea pig cerebral cortex membranes
T2 sequence (H0VZC5 1-426): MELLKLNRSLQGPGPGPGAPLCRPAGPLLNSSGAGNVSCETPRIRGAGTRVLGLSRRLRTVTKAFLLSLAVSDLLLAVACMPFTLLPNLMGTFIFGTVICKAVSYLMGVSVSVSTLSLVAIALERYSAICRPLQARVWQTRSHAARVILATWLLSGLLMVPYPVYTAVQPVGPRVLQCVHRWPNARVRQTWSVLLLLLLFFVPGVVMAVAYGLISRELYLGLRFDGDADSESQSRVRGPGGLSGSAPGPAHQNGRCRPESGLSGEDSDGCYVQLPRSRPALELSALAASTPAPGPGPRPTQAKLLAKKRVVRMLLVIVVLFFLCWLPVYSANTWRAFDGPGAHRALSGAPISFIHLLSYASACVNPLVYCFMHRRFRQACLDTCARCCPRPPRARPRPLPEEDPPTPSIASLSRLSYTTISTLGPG
Description: Cerebral cortices of white male guinea pigs were therefore used, according to the method mentioned above, so as to obtain a membrane content/ml corresponding to about 300 mcg of proteins/mi. The membranes were incubated together with the radioactive tracer and the compounds under test for 150 minutes at 25° C. After the supernatant liquid had been discarded, the radioactivity associated with the pellet was determined with a liquid scintillator.

Compound: CN1CCN(C(=O)C[C@@H](NC(=O)c2cc(Cl)cc(Cl)c2)C(=O)N2CCC3(CCCC3)CC2)CC1 [Compound 70]
ED50 [1]: 18.9 mg/kg

Compound: CCCCCN(CCCCC)C(=O)C(CCC(=O)O)NC(=O)c1ccc(Cl)c(Cl)c1 (stereo not drawn) [lorglumide, reference compound]
antigastrin activity (in words) ([1]; rat, up to a dose of 100 mg/kg): completely inactive

IC50 ([2]; 30 minutes at 37° C., read-out: IC50, inhibition of the binding of (125-I)(B-H)-CCK-8 to the pancreatic cells of the rat): 1200 nM
Compound: CCCCCN(CCCCC)C(=O)[C@@H](CCC(=O)NCCN1CCOCC1)NC(=O)c1cnc2ccccc2c1 [Compound 59]

Compound: CCC(C)(CC)CCNC(=O)C(CC(=O)NCCN1CCOCC1)NC(=O)c1cccc(Cl)c1 (stereo not drawn) [Compound 68]
ED50 [1]: 31 mg/kg

times more active than the compound 59 (CCK-A binding) ([2]; rat pancreatic cells): about 25 times
IC50 [3]: 9.2 µM
Compound: CCCCCN(CCCCC)C(=O)[C@@H](CCC(=O)O)NC(=O)c1ccc(Cl)c(Cl)c1 [R-lorglumide, reference compound]

IC50 [3]: 2.4 µM
Compound: O=C(O)CC[C@@H](NC(=O)c1cc(Cl)cc(Cl)c1)C(=O)N1CCC2(CCCC2)CC1 [CR 2194, reference compound]
ED50 [1]: 11 mg/kg

Compound: CCCN(CCC)C(=O)C(CCC(=O)O)NC(=O)c1ccccc1 (stereo not drawn) [proglumide, reference compound]
ED50 [1]: 500 mg/kg
